The source of these data is patent US10662151B1, “Process for preparing DTEA HCl” (AMSA, Inc., priority 2017, dated 2020).

A short description of this series: Water solubility of DTEA HCl (pure and crude) at different temperatures. Type of series: physicochemical. As to conditions: FIG. 2. From the text:
FIG. 2 graphically represents the water solubility of pure DTEA HCl.

Regarding `CCCCCCCCCCSCCN.Cl` [DTEA HCl, n-decylthioethylamine HCl], the solids formation entry (15 wt % solution in water) is on record as “forms solids well above RT”. For the same molecule, the solubility in water result is “essentially insoluble” (at 32° F.); “less than 1 wt %” (at 56° F., no LTS); 11 wt % (at 67° F., no LTS).
